Numbered stars: 1 amine (or outer) side, 2 acyl side, 3 side chain; on linkers, the order of the positions; unused ones are H or OH. Square brackets hold non-standard residues; d marks the D form. Peptide text beside a SMILES is read from it. * marks the point of attachment. X1 = O=C1NC2CSC(CCCCC(=O)*)C2N1; X2 = CC(O)CC(N[*:1])C(=O)[*:2]; Abu = CC[CH](N)C(=O)O

The test system of data set [1] is fetal rat cortical neurons. Description: Oxygen-glucose deprivation (OGD)-induced damage to neurons, MTT cell survival and LDH release. It counts as cell-based. The conditions noted are these: 3 h hypoxia (1% oxygen), then 4 h with EPO 5, 100 μg/ml or T3 5, 50, 100 μg/ml. As to the method: According to the methods from literatures, the fetal rat cortical neurons were cultured in the serum-free culture medium of Neurobasal® Medium (purchased from the market). After incubation in a 5% CO2 incubator for 7-14 days, the neurons were specifically labeled: microtubule-associated protein-2 (MAP-2) was stained and identified, and the nuclei were labeled with the fluorescent dye of 4, 6-diamidino-2-phenylindole (DAPI).
The fetal rat cortical neurons of primary culture were cultured in a sugar-free DMED culture medium. After being placed in the hypoxic incubator to damage neurons for 3 h, the culture medium were replaced with serum-free culture medium. EPO, the novel EPO-derived peptide (T3) and the culture medium were added to different groups respectively, and the groups were cultured in a 5% CO2 normal oxygen incubator for 4 h. Then the LDH release rate and MTT cell survival rate of each group were measured.
1. Selecting well-grown neurons cultured for 7-14 days, aspirating the old culture medium of neurons, washing 3 times with PBS buffer, and then adding sugar-free DMEM:
2. Placing the culture plates in an anoxic incubator at 37° C., and setting the oxygen concentration therein as 1%.
3. Removing the culture plates after 3 h of hypoxia, aspirating the sugar-free medium, replacing it with the original serum-free maintenance medium, adding EPO (5 μg/ml, 100 μg/ml), the EPO-derived peptide of the present invention (5 μg/ml, 50 μg/ml, 100 μg/ml), and the culture medium respectively, and placing in an 5% CO2 incubator with 95% air at 37° C. for 4 h.
4. After 4 h, measuring the cell survival rate (MTT kit, Beyotime Biotechnology Co., Ltd.) and LDH lactic dehydrogenase release rate (LDH kit, Promega Corporation) of the cells in each group.
A general note: LDH leaks from cells whose membrane has failed.

The test system of data set [2] is pilocarpine-induced seizures. Description: Pilocarpine-induced epilepsy model: seizure latency. It counts as in vivo, C57/BL6 mice. The following applies: for seizure latency / seizure latency versus saline and solvent groups: EPO 50 μg/kg; for seizure latency: T3 500 μg/kg i.p. 1 day, 4 h, 2 h before pilocarpine 350 mg/kg; for seizure latency versus saline and solvent groups: T3 500 μg/kg, difference statistically significant. As to the method: C57/BL6 mice (male, 20-25 g, 24 mice, purchased from Shanghai JieSiJie Laboratory Animal Co., Ltd) were divided into physiological saline group (Saline, 0.2 ml/mouse), solvent group (ACN+Milliq, 0.2 ml/mouse), EPO group (50 μg/kg), novel EPO-derived peptide group (T3, 500 μg/kg), 6 mice each group. The drugs were administered 1 day, 4 h, and 2 h before pilocarpine-induced epilepsy, and the seizure latency and severity of seizures were recorded.
1. Intraperitoneally administering the mice 1 day, 4 h, 2 h prior to the injection of pilocarpine;
2. Intraperitoneally injecting scopolamine (1 mg/kg) 30 min in advance to reduce the peripheral cholinergic response induced by pilocarpine;
3. Intraperitoneally injecting pilocarpine (350 mg/kg), recording the time of administration, time of onset, severity of seizure;
Behavioral grading of epilepsy continuing status using the Racine scale:
Grade I: staring, mouth and facial movements;
Grade II: nodding, single jerks;
Grade III: unilateral/bilateral forelimb clonus
Grade V: loss of posture, jumping repeatedly, falling, tonic clonic seizure.

Data set [3] concerns fetal rat cortical neurons. Description: NMDA-induced damage to neurons, MTT cell survival and LDH release. Type of data set: cell-based. The following applies: NMDA 250 μmol/L, 60 min; EPO 5 μg/ml, T3 100 μg/ml. Here is the method:
Based on the above results, the primary cortical neurons were administered with 250 μmol/L NMDA.
1. Selecting well-grown neurons cultured for 7-14 days, and adding EPO (5 μg/ml), the EPO-derived peptide of the present invention (100 μg/ml) respectively;
2. Adding NMDA to achieve a final concentration of 250 μmol/L, and culturing in an incubator at 37° C. for 60 min;
3. Discarding the culture medium, and measuring the cell survival rate (MTT kit, Beyotime Biotechnology Co., Ltd.) and LDH lactic dehydrogenase release rate (LDH kit, Promega Corporation) of the cells in each group.

In data set [4] the test system is mouse model of transient middle cerebral artery occlusion. In words: Mouse model of transient middle cerebral artery occlusion: neurobehavioral scores, cerebral infarction volume. It counts as in vivo, ICR mice. The conditions noted are these: for cerebral infarction volume versus control group / neurobehavioral scores versus control group: EPO 50 μg/kg, T3 500 μg/kg at reperfusion; for Neurobehavioral scores / Cerebral infarction volumes: third day after surgery; for Neurobehavioral scores: 60 min ischemia then reperfusion; for Cerebral infarction volumes: cresyl violet sections. Here is the method: ICR mice (male, 25-30 g, 18 mice, purchased from Shanghai Slac Laboratory Animal Co., Ltd.) were divided into control group (ACN+Millq, 0.2 ml/mouse), EPO group (50 μg/kg), novel EPO-derived peptide group (T3, 500 μg/kg), 6 mice/group. Mice in each group were operated with suture-occluded method in mice to establish middle cerebral artery occlusion model, the mice were anesthetized by intraperitoneal injection of ketamine hydrochloride and fixed on the operating table. After 60 min of ischemia, the sutures were removed to reperfuse, and the solvents (ACN+Milliq), EPO, and T3 were administered separately. Neurobehavioral scores were measured on the third day after surgery, and then the mice were sacrificed to reperfuse and the brains were harvested to make sections stained with cresyl violet. The results were shown in FIG. 7A, FIG. 7B and FIG. 7C.
1. Disinfecting the neck, making an incision at the center of the neck, exposing the left common carotid artery with a microsurgical forceps under a stereo microscope, separating the internal carotid artery, external carotid artery and pterygopalatine artery, ligating the common carotid artery and internal carotid artery; making two knots on the external carotid artery with two filaments, wherein one at the distal part of the external carotid artery is a dead knot, and one at the proximal part of the external carotid artery is a slipknot;
2. Making a small incision on the external carotid artery with venus scissors, having about half the size of the blood vessel;
3. Cutting the external carotid artery, and carefully reversely inserting the suture from the external carotid artery into the bifurcation of the external carotid artery and internal carotid artery, then loosening the knot on the internal carotid artery, inserting the suture into the internal carotid artery until it encounters a slight resistance, that is, the origin of the middle cerebral artery, and putting the mouse back into the cage.
4. Anesthetizing and fixing again after 60 min of cerebral ischemia, and re-exposing the common carotid artery, internal carotid artery and suture parts under a stereo microscope;
5. Loosening the filament ligated to the proximal part of the external carotid artery for fixing the suture with the microsurgical forceps, slowly withdrawing the suture, and ligating the stump of the external carotid artery, loosening the filament ligated to the common carotid artery to achieve reperfusion;
6. Suturing the incision of the neck, disinfecting the area, and putting the mouse back in the cage for observation.

Another data set has as its system red blood cells. In words: Hematopoietic experiment: red blood cell counts after daily intraperitoneal injection. Type of data set: in vivo, C57/BL6 mice. The following applies: for RBC generation (erythrocyte counts): tail vein blood; for red blood cell counts compared with the other groups (Saline, ACN+Milliq): as the number of administrations increases. As to the method: 18-22 g of male C57/BL6 mice (purchased from Shanghai SIPPR-BK Laboratory Animal Co., Ltd., 50 mice in total and 10 mice for each group) were used. The five groups were injected intraperitoneally with EPO (50 μg/kg), EPO-derived peptide of the present invention (50 μg/kg), EPO-derived peptide of the present invention (250 μg/kg), physiological saline (0.1 m/mouse), and solvent (ACN+Milliq, 0.1 m/mouse) once a day, respectively. On the 3th, 7th, and 13th days, the blood samples were collected from the tail vein and measured by a ProCyte Dx automatic blood cell analyzer to obtain the numbers of red blood cells thereof.

Data set [5] is described as follows: Blood-brain barrier penetration experiment: biotin in cerebrospinal fluid. It counts as in vivo, mouse. The following applies: mice, biotin detected in cerebrospinal fluid. Here is the method: The biotin-labeled novel EPO-derived peptide was injected intraperitoneally. 5-15 μl of mouse cerebrospinal fluid was taken under general anesthesia 1 h after administration. The biotin assay kit was used to detect whether the biotin-labeled novel EPO-derived peptide entered the cerebrospinal fluid across the blood-brain barrier.
1. Anesthetizing the mouse with 4% chloral hydrate;
2. Wiping the nape of the neck with wet gauze, and cutting off the dorsal set to expose the skin; making a sagittal incision in the skin below the occipital bone, and separating the skin from both sides to expand the visual field;
3. Letting the mouse prone, placing the body at an angle of 135° to the head and fixing the head on the stereotactic instrument; bluntly separating the subcutaneous tissue and muscle along the midline under the stereo microscope; at this angle, the dura mater and spinal cord can be clearly seen in the incision below the occipital bone (The main features are a clear white appearance, a cyclical pulsation of the spinal cord blood vessels and an adjacent cerebrospinal fluid area);
4. Setting the heat value as 300 and the pressure value as 330 in the needle puller, pulling the capillary glass tube into a pointed capillary tube, and trimming the tip of the pointed capillary tube with scissors to make the blunt tip have a diameter of 0.5 mm;
5. […]

[6] abbreviates: 50 ug/kg i.p. once a day, 3th day.
The mark [7] stands for this setting: 50 ug/kg i.p. once a day, 7th day.
The mark [8] stands for this setting: 50 ug/kg i.p. once a day, 13th day.

With `CCC(NC(=O)C(CC(C)C)NC(=O)CNC(=O)C(CO)NC(=O)C(NC(=O)C(C)NC(=O)C(CC(=O)O)NC(=O)C(NC(=O)C(Cc1cnc[nH]1)NC(=O)C(CC(C)C)NC(=O)C(CCC(N)=O)NC(=O)C(CC(C)C)NC(=O)C1CCCN1C(=O)C(CO)NC(=O)C(CO)NC(=O)C(CC(N)=O)NC(=O)C(NC(=O)C(CC(C)C)NC(=O)C(CC(C)C)NC(=O)C(C)NC(=O)C(CCC(N)=O)NC(=O)CNC(=O)C(CCCNC(=N)N)NC(=O)C(CC(C)C)NC(=O)C(NC(=O)C(C)NC(=O)C(CCC(=O)O)NC(=O)C(CO)NC(=O)CCCCC1SCC2NC(=O)NC21)C(C)C)C(C)C)C(C)C)C(C)C)C(=O)NC(CO)C(=O)NC(CC(C)O)C(=O)NC(C(=O)NC(C(=O)NC(CC(C)C)C(=O)NC(CC(C)C)C(=O)NC(CCCNC(=N)N)C(=O)NC(C)C(=O)NC(CC(C)C)C(=O)O)C(C)O)C(C)O` (stereo not drawn) [T3] (X1-SEAVLRGQALLVNSSPLQLHVDAVSGL[Abu]S[X2]TTLLRAL-OH; configuration not given here), the “LDH release rate versus control group” value in data set [1] and in data set [3] was “lower than that in the control group” throughout. Besides, the “cell survival rate (MTT) versus control group” value in data set [1] and in data set [3] was “higher than that in the control group” in each case. The compound further registered a seizure latency in data set [2] of 40.58 ± 3.67 min. Moreover, the “seizure latency versus saline and solvent groups” value in data set [2] was “longer than those of the physiological saline group and the solvent group”. In addition, the “loss of neurons in the hippocampus” value in data set [2] (animals with nerve damage (epilepsy model), summary statement) is “reduce the loss of neurons in the hippocampus”. Further, in data set [4], the “cerebral infarction volume versus control group” value is recorded as “lower than those of the control group”. Besides, the “neurobehavioral scores versus control group” value in data set [4] was “lower than those of the control group”. Also, the Neurobehavioral scores in data set [4] (column head: Ctrl + T3 group) is reported as 6.3 ± 0.7; in data set [4] (column head:) it was 5.7 ± 0.3. Besides, the results for the Cerebral infarction volumes in data set [4] (column head: ctrl + T3 group) and in data set [4] (column head:) were 40.54 ± 5.78 mm^3 and 37.72 ± 9.20 mm^3, respectively. Also, the “RBC generation (erythrocyte counts)” value is on record as 9.29 ± 0.13 M/μL in the data set on red blood cells (setting [6]); 8.75 ± 0.36 M/μL in the data set on red blood cells (setting [7]); 6.77 ± 0.18 M/μL in the data set with red blood cells (setting [8]); 8.16 ± 0.28 M/μL in the data set with red blood cells (250 ug/kg i.p. once a day, 3th day); 9.56 ± 0.54 M/μL in the data set with red blood cells (250 ug/kg i.p. once a day, 7th day); 6.52 ± 0.12 M/μL in the data set on red blood cells (250 ug/kg i.p. once a day, 13th day). Besides, the “red blood cell counts compared with the other groups (Saline, ACN+Milliq)” value with red blood cells is recorded as “no significant increase”. For the same compound, the blood-brain barrier penetration entry in data set [5] is “could enter the cerebrospinal fluid across the blood-brain barrier”.
With Erythropoietin [EPO], in data set [1], the “LDH release rate versus control group” value was “lower than that in the control group” and the “cell survival rate (MTT) versus control group” value is recorded as “higher than that in the control group”. Further, in data set [2], the seizure latency is reported as 41.16 ± 3.52 min; the “seizure latency versus saline and solvent groups” value was “longer than those of the physiological saline group and the solvent group”. Besides, in data set [3], the “LDH release rate versus control group” value is “lower than that in the control group” and the “cell survival rate (MTT) versus control group” value was “higher than that in the control group”. In data set [4], the “cerebral infarction volume versus control group” value is on record as “lower than those of the control group” and the “neurobehavioral scores versus control group” value is on record as “lower than those of the control group”. The “RBC generation (erythrocyte counts)” value with red blood cells (setting [6]) turned out to be 9.14 ± 0.56 M/μL. Also, the “RBC generation (erythrocyte counts)” value with red blood cells (setting [7]) is reported as 12.79 ± 0.24 M/μL. In addition, in the data set on red blood cells (setting [8]), the “RBC generation (erythrocyte counts)” value was 11.15 ± 0.23 M/μL. The “red blood cell counts compared with the other groups (Saline, ACN+Milliq)” value in the data set on red blood cells is “significantly higher than that of other groups”.

These data come from patent US11479592B2, “Erythropoietin-derived peptide, preparation method and use thereof” (Zhongshan Hospital, Fudan University, priority 2017, dated 2022).
